Reference: ChEMBL document CHEMBL4616618, “Design and synthesis of a folate-receptor targeted diazepine-ring-opened pyrrolobenzodiazepine prodrug conjugate” (Bioorg Med Chem Lett, 2020)
Activity calls are given as the source filed them. No cut-off for these calls is given here.

Assays:
[1] = Antagonist activity at folate receptor in human KB cells after 2 hrs in presence of 100 uM folic acid; format: cell-based
[2] = Antagonist activity at folate receptor in human KB cells after 2 hrs; format: cell-based
[3] = test system: KB; assay: Antitumor activity against FR-positive human KB cells xenografted in nu/nu mouse assessed as reduction in tumor growth at 2 umol/kg administered as single dose for 1 week; format: functional, cell-based
[4] = Toxicity in mouse xenografted with FR-positive human KB cells assessed as body weight loss at 2 umol/kg administered as single dose for 1 week; format: cell-based; conditions: in vivo, 168 h
[5] = Toxicity in mouse xenografted with FR-positive human KB cells assessed as tissue degeneration at 300 nmol/kg administered as single dose for 1 week; format: cell-based; conditions: in vivo, 168 h
[6] = Toxicity in mouse xenografted with FR-positive human KB cells assessed as body weight loss at 300 nmol/kg administered as single dose and measured up to 96 days post tumor implantation; format: cell-based; conditions: in vivo, 2304 h
[7] = test system: KB; assay: Antitumor activity against FR-positive human KB cells xenografted in nu/nu mouse at 300 nmol/kg administered as single dose for 1 week; format: functional, cell-based

SMILES | IC50 [1] | IC50 [2] | Activity [3] | Activity [4] | Activity [5] | Activity [6] | Activity [7]
C=C1C[C@H]2C(=O)Nc3cc(OCCCCCOc4cc(N)c(C(=O)N5CC(=C)C[C@H]5C5OCCN5C(=O)OCCSSC[C@H](NC(=O)[C@H](CC(=O)O)NC(=O)[C@H](CC(=O)O)NC(=O)[C@H](CCCNC(=N)N)NC(=O)[C@H](CC(=O)O)NC(=O)CC[C@H](NC(=O)c5ccc(NCc6cnc7nc(N)[nH]c(=O)c7n6)cc5)C(=O)O)C(=O)O)cc4OC)c(OC)cc3C(=O)N2C1 (some centres undefined) | 696 nM | 1.12 nM | – | – | – | – | –
C=C1C[C@@H](C2OCCN2C(=O)OCCSSC[C@@H](NC(=O)[C@H](CCC(=O)NC[C@H](O)[C@@H](O)[C@H](O)[C@H](O)CO)NC(=O)[C@@H](CCC(=O)O)NC(=O)[C@H](CCC(=O)NC[C@H](O)[C@@H](O)[C@H](O)[C@H](O)CO)NC(=O)[C@@H](CCC(=O)O)NC(=O)[C@H](CCC(=O)NC[C@H](O)[C@@H](O)[C@H](O)[C@H](O)CO)NC(=O)CC[C@H](NC(=O)c2ccc(NCc3cnc4nc(N)[nH]c(=O)c4n3)cc2)C(=O)O)C(=O)O)N(C(=O)c2cc(OC)c(OCCCCCOc3ccc(-c4nc5ccc(-c6nc7cc(N8CCN(C)CC8)ccc7[nH]6)cc5[nH]4)cc3)cc2N)C1 (some centres undefined) | 84.3 nM | 0.658 nM | Active | Toxic | – | – | –
C=C1C[C@H]2C=Nc3cc(OCCCCCOc4cc(N)c(C(=O)N5CC(=C)C[C@H]5C5OCCN5C(=O)OCC(C)(C)SSCCC(=O)NCCNC(=O)CCOCCOCCOCCOCCNC(=O)CCN5C(=O)CC(SC[C@H](NC(=O)[C@H](CC(=O)O)NC(=O)[C@H](CC(=O)O)NC(=O)[C@H](CCCNC(=N)N)NC(=O)[C@H](CC(=O)O)NC(=O)CC[C@H](NC(=O)c6ccc(NCc7cnc8nc(N)[nH]c(=O)c8n7)cc6)C(=O)O)C(=O)O)C5=O)cc4OC)c(OC)cc3C(=O)N2C1 (some centres undefined) | 3.78 nM | 0.0522 nM | – | – | Toxic | Toxic | Active
C=C1C[C@@H](C2OCCN2C(=O)OCCSSC[C@@H](NC(=O)[C@H](CCC(=O)NC[C@H](O)[C@@H](O)[C@H](O)[C@H](O)CO)NC(=O)[C@@H](CCC(=O)O)NC(=O)[C@H](CCC(=O)NC[C@H](O)[C@@H](O)[C@H](O)[C@H](O)CO)NC(=O)[C@@H](CCC(=O)O)NC(=O)[C@H](CCC(=O)NC[C@H](O)[C@@H](O)[C@H](O)[C@H](O)CO)NC(=O)CC[C@H](NC(=O)c2ccc(NCc3cnc4nc(N)[nH]c(=O)c4n3)cc2)C(=O)O)C(=O)O)N(C(=O)c2cc(OC)c(OCCCCCOc3cc(N)c(C(=O)N4CC(=C)C[C@H]4C4OCCN4C(=O)OCCSSc4ccccn4)cc3OC)cc2N)C1 (some centres undefined) | 184 nM | 1.31 nM | Active | – | – | – | –
